Counter-ions that a name gives are not always drawn.

Broadly, the IC50 is the midpoint of a concentration-inhibition curve. A lower IC50 goes with higher potency. Usually EC50 stands for the concentration at which the effect is half-maximal.

In data set [1] the test system is human platelets. In words: Inhibition of the binding of ^3 H-BIBU 52 to human platelets (fibrinogen binding test). The settings on record: human platelets in plasma; ^3 H-BIBU 52 5 nM; room temperature, 20 minutes. The protocol:
1. Inhibition of the binding of ^3 H-BIBU 52 to Human Platelets
The free and bound ligand is separated by centrifugation and determined quantitatively by scintillation counting. From the measurements, the inhibition of ^3 H-BIBU 52 binding by the test substance is determined.
To do this, donor blood is taken from an antecubital vein and anticoagulated with trisodium citrate (final concentration 13 mM). The blood is centrifuged at 170×g for 10 minutes and the supernatant platelet-rich plasma (PRP) is removed. The residual blood is rapidly centrifuged once more to obtain plasma. The PRP is diluted 1:10 with autologous plasma. 750 μl are incubated with […] of physiological saline solution, 100 μl of test substance solution, 50 μl of ^14 C-sucrose (3700 Bq) and 50 μl of ^3 H-BIBU 52 (final concentration: 5 nM) at room temperature for 20 minutes. To measure the non-specific binding, instead of the test substance, 100 μl of BIBU 52 (final concentration: 30 μM) is employed. The samples are centrifuged at 10,000×g for 20 seconds and the supernatant is removed. 100 μl thereof are measured to determine the free ligand. The pellet is dissolved in 500 μl of 0.2N NaOH, and 450 μl are mixed with 2 ml of scintillator and 25 μl of 5N HCl and measured. The residual plasma still remaining in the pellet is determined from the ^14 C content, the bound ligand from the ^3 H measurement.

Data set [2] in a line: Plasma levels in Rhesus monkeys after oral administration. The data set is classed as in vivo. The settings on record: 1 mg/kg.
Data set [3] concerns platelet aggregation. The data set is described as follows: Antithrombotic action: collagen-induced platelet aggregation in platelet-rich plasma (Born and Cross). It is filed as cell-based. Particulars: Homo sapiens, 10 min, platelet-rich plasma of healthy subjects, incubated 10 minutes at 37° C., 50% change in optical density, read-out: Inhibition of platelet aggregation EC50. Here is the method:
2. Antithrombotic Action Methodology Platelet aggregation is measured according to the method of Born and Cross (J. Physiol. 170, 397 (1964)) in platelet-rich plasma of healthy subjects. To inhibit clotting, the blood is treated with sodium citrate 3.14% in the volume ratio 1:10. Collagen-induced Aggregation The course of the decrease in the optical density of the platelet suspension is measured photometrically and recorded after addition of the aggregation-inducing substance. From the angle of inclination of the density curve, the aggregation rate is deduced. The point on the curve at which the greatest light transmission is present serves for the calculation of the optical density. The amount of collagen is chosen to be as low as possible, but of course such that an irreversibly running reaction curve results. Commercially available collagen from Hormonchemie, Munich is used. Before the addition of collagen, the plasma is incubated at 37° C. with the substance for 10 minutes in each case. From the measured values obtained, an EC50 which relates to a 50% change in the optical density in the sense of an inhibition of aggregation is determined graphically.

Turning to `O=C(O)C(Oc1ccc(N2CCN(CCC3CCNCC3)CC2)cc1)c1ccccc1` (stereo not drawn) [7(6), 1-[4-(1-Carboxybenzyloxy)phenyl]-4-[2-(piperidin-4-yl)ethyl]piperazine dihydrochloride], in data set [1], the IC50 worked out at 150 nM.
With `COC(=O)COc1ccc(N2CCN(CCC3CCNCC3)CC2C)cc1.Cl.Cl` (stereo not drawn) [2(4), 1-(4-Methoxycarbonylmethyloxyphenyl)-2-methyl-4-[2-(piperidin-4-yl)ethyl]piperazine dihydrochloride], in data set [2], the “period of high plasma levels” value is listed as “more than 8 hours”.
Regarding `COC(=O)COc1ccc(N2CCN(CCC3CCNCC3)CC2)cc1.Cl.Cl` [Example 2, 1-(4-Methoxycarbonylmethyloxyphenyl)-4-[2-(piperidin-4-yl)ethyl]piperazine dihydrochloride], the “period of high plasma levels” value in data set [2] is listed as “more than 8 hours”.
Take `O=C(O)COc1ccc(N2CCN(CCC3CCNCC3)CC2)cc1OCC(=O)O` [1(3), 1-[3,4-Di(carboxymethyloxy)phenyl]-4-[2-(piperidin-4-yl)ethyl]piperazine d ihydrochloride]: the IC50 in data set [1] amounted to 47 nM. Further, the EC50 in data set [3] turned out to be 110 nM.
For the compound `O=C(O)CO[C@H]1CC[C@H](N2CCN(CCC3CCNCC3)CC2=O)CC1` [7(1), 1-(trans-4-Carboxymethyloxycyclohexyl)-4-[2-(piperidin-4-yl)ethyl]piperazin-2-one], the IC50 in data set [1] came out at 200 nM. Further, in data set [3], the EC50 was found to be 250 nM.
The matching figures for `CN(CC1CCNCC1)[C@H]1CC[C@H](c2ccc(OCC(=O)O)cc2)CC1` [1(22), trans-1-(4-Carboxymethyloxyphenyl)-4-[(piperidin-4-yl)-N-methylmethylamino]cyclohexane dihydrochloride]: 260 nM and 370 nM.
For the compound `O=C(O)COc1ccc(N2CCN(CCC3CCNCC3)CC2)cc1` [Example 1, 1-(4-Carboxymethyloxyphenyl)-4-[2-(piperidin-4-yl)ethyl]piperazine dihydrochloride], the 50% inhibitory concentration (IC50) in data set [1] was determined as 150 nM. In addition, the concentration giving a half-maximal response (EC50) in data set [3] was 120 nM.
Take `Cl.Cl.O=C(COc1ccc(N2CCN(CCC3CCNCC3)CC2)cc1OCC(=O)OC1CCCCC1)OC1CCCCC1` [9(2), 1-[3,4-Di(cyclohexyloxycarbonylmethyloxy)phenyl]4-[2-(piperidin-4-yl)ethyl]piperazine dihydrochloride]: in data set [2], the “period of high plasma levels” value was “more than 8 hours”.
`CC(C)COC(=O)COc1ccc(N2CCN(CCC3CCNCC3)CC2)cc1OCC(=O)OCC(C)C` [9(1), 1-[3,4-Di(isobutyloxycarbonylmethyloxy)phenyl]-4-[2-piperidin-4-yl)ethyl]piperazine dihydrochloride]: in data set [2], the “period of high plasma levels” value is listed as “more than 8 hours”.
For `CCOC(=O)COc1ccc(N2CCN(CCC3CCNCC3)CC2)cc1OCC(=O)OCC.Cl.Cl` [Example 9, 1-[3,4-Di(ethoxycarbonylmethyloxy)phenyl]-4-[2-(piperidin-4-yl)ethyl]piperazine dihydrochloride], in data set [2], the “period of high plasma levels” value was “more than 8 hours”.
With `O=C(O)COc1ccc(N2CCN(CCC3CCNCC3)CC2=O)cc1` [1(1), 1-(4-Carboxymethyloxyphenyl)-4-[2-(piperidin-4-yl)ethyl]piperazin-2-onedihydrochloride], the IC50 in data set [1] amounted to 360 nM. Further, the 50% effective concentration (EC50) in data set [3] came to 370 nM.
The compound `CC1CN(CCC2CCNCC2)CCN1c1ccc(OCC(=O)O)cc1` (stereo not drawn) [1(7), 1-(4-Carboxymethyloxyphenyl)-2-methyl-4-[2-(piperidin-4-yl)ethyl]piperazine dihydrochloride] displayed an IC50 in data set [1] of 260 nM. Also, the EC50 in data set [3] was found to be 240 nM.

The record behind these values is patent publication US5994356A, “Carboxylic acid derivatives, medicaments comprising these compounds, their use and processes for their production” (priority 1996, dated 1999).
